This test deals with T1, Human complement C1s enzyme (Homo sapiens, UniProt P09871).
T1 construct: purified from human serum, Complement Technology, Inc; purchased Complement Technology, Inc; host or cells: human serum
T1 sequence (P09871 438-688 limits assumed): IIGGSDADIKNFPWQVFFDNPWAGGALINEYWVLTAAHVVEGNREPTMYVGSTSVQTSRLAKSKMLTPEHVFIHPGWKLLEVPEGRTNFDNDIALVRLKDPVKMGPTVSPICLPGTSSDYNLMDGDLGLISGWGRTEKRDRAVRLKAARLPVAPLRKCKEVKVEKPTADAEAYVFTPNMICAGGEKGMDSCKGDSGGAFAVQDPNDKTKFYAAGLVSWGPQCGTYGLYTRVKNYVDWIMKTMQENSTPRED
T1 sequence (P09871 16-437 partner limits assumed): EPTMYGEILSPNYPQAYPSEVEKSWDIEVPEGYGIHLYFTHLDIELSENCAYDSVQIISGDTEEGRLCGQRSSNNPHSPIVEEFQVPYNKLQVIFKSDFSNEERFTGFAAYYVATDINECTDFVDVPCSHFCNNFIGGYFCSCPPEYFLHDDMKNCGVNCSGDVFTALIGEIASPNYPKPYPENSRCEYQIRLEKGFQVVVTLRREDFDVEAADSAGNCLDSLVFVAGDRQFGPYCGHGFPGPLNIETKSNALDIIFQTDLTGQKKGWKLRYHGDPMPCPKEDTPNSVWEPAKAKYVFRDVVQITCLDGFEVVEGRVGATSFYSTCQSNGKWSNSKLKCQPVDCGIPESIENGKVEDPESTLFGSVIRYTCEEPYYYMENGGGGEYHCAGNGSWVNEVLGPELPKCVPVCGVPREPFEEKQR
Kind of test: Human C1s Enzyme Assay. Format: biochemical. The settings on record: human C1s 1.16 nM, 5 min preincubation, substrate Z-L-Lys-SBzl 100 μM, A405; read-out: C1s Protease Activity. The essentials:
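IC50 values were fitted by nonlinear regression to rates measured as A405 every 30 s for 30 min. The thioester substrate Z-L-Lys-SBzl and Ellman's reagent were each at 100 μM. Serum-derived C1s at 1.16 nM final had 5 min of room-temperature preincubation with compound (pH 7.5 Tris buffer, 1 M NaCl).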
Consider `N=C(N)c1csc(CNC(=O)[C@@H]2CC(OC(F)(F)F)CN2C(=O)CNC(=O)c2ccc(Oc3ccccc3)cc2)c1` (stereo in doubt) [Compound 247, (2S,4S)-N-((4-carbamimidoylthiophen-2-yl)methyl)-1-((4-phenoxybenzoyl)glycyl)-4-(trifluoromethoxy)pyrrolidine-2-carboxamide], for which the IC50 is below 100 nM.
Consider `C[C@@H](NC(=O)[C@@H]1C[C@H](C2CCCCC2)CN1C(=O)CNC(=O)c1ccc(Oc2ccccc2)cc1)c1cc(C(=N)N)cs1` [Compound 241, (2S,4R)-N-((R)-1-(4-carbamimidoylthiophen-2-yl)ethyl)-4-cyclohexyl-1-((4-phenoxybenzoyl)glycyl)pyrrolidine-2-carboxamide], for which the IC50 is below 100 nM.
In the case of `N=C(N)c1csc(CNC(=O)[C@@H]2CC3(CCCC3)CN2C(=O)CNC(=O)CCCOc2ccccc2)c1` [Compound 82, (S)-N-((4-carbamimidoylthiophen-2-yl)methyl)-2-((4-phenoxybutanoyl)glycyl)-2-azaspiro[4.4]nonane-3-carboxamide], the IC50 is 100 to 1000 nM.
To `CO[C@@H]1C[C@@H](C(=O)NCc2cc(C(=N)N)cs2)N(C(=O)CNC(=O)CCCOc2ccccc2)C1` [Compound 27, (2S,4R)-N-((4-carbamimidoylthiophen-2-yl)methyl)-4-methoxy-1-((4-phenoxy-butanoyl)glycyl)pyrrolidine-2-carboxamide] belongs below 100 nM; to `C[C@@]12C[C@@H]1N(C(=O)CN1Cc3ccc(Oc4ccccc4)cc3C1=O)[C@H](C(=O)NCc1cc(C(=N)N)cs1)C2` [Compound 144, (1S,3S,5S)-N-[(4-carbamimidoylthiophen-2-yl)methyl]-5-methyl-2-[2-(1-oxo-6-phenoxy-3H-isoindol-2-yl)acetyl]-2-azabicyclo[3.1.0]hexane-3-carboxamide], below 100 nM; to `C[C@@]12C[C@@H]1N(C(=O)CN1Cc3cc(Oc4ccccc4)ccc3C1=O)[C@H](C(=O)NCc1cc(C(=N)N)cs1)C2` [Compound 101, (1S,3S,5S)-N-((4-carbamimidoylthiophen-2-yl)methyl)-5-methyl-2-(2-(1-oxo-5-phenoxyisoindolin-2-yl)acetyl)-2-azabicyclo[3.1.0]hexane-3-carboxamide], below 100 nM.
In the case of `Cc1cccc(O[C@@H]2C[C@@H](C(=O)N[C@H](C)c3cc(C(=N)N)cs3)N(C(=O)CNC(=O)CCCOc3ccccc3)C2)c1` [Compound 118, (2S,4R)-N-((R)-1-(4-carbamimidoylthiophen-2-yl)ethyl)-1-((4-phenoxybutanoyl)-glycyl)-4-(m-tolyloxy)pyrrolidine-2-carboxamide], the IC50 was below 100 nM.
With `CO/C(=N/C#N)c1csc(CNC(=O)[C@@H]2C[C@]3(C)C[C@@H]3N2C(=O)CNC(=O)c2ccc(Oc3ccccc3)cc2)c1` [Compound 31, methyl (E)-N-cyano-5-(((1S,3S,5S)-5-methyl-2-((4-phenoxybenzoyl)glycyl)-2-azabicyclo[3.1.0]hexane-3-carboxamido)methyl)thiophene-3-carbimidate], the IC50 is above 1000 nM.
To `COCCOCCCC(=O)NCC(=O)N1[C@H]2C[C@@]2(C)C[C@H]1C(=O)NCc1cc(C(=N)N)cs1` [Compound 136, (1S,3S,5S)-N-((4-carbamimidoylthiophen-2-yl)methyl)-2-((4-(2-methoxyethoxy)butanoyl)glycyl)-5-methyl-2-azabicyclo[3.1.0]hexane-3-carboxamide] belongs 100 to 1000 nM; to `N=C(N)c1csc(CNC(=O)[C@@H]2C[C@@H](C(F)(F)F)CN2C(=O)CNC(=O)CCCOc2ccccc2)c1` [Compound 60, (2S,4R)-N-((4-carbamimidoylthiophen-2-yl)methyl)-1-((4-phenoxybutanoyl)glycyl)-4-(trifluoromethyl)pyrrolidine-2-carboxamide], below 100 nM; to `C[C@@H](NC(=O)[C@@H]1C[C@](F)(COCCCCCC(=O)O)CN1C(=O)CNC(=O)c1ccc(Oc2ccccc2)cc1)c1cc(C(=N)N)cs1` [Compound 199, 6-(((3R,5S)-5-(((R)-1-(4-carbamimidoylthiophen-2-yl)ethyl)carbamoyl)-3-fluoro-1-((4-phenoxybenzoyl)glycyl)pyrrolidin-3-yl)methoxy)hexanoic acid], below 100 nM.
On to `C/N=C(/NC)c1csc(CNC(=O)[C@@H]2C[C@]3(C)C[C@@H]3N2C(=O)CNC(=O)c2ccc(Oc3ccccc3)cc2)c1` [Compound 222, (1S,3S,5S)-N-((4-((E)-N,N′-dimethylcarbamimidoyl)thiophen-2-yl)methyl)-5-methyl-2-((4-phenoxybenzoyl)glycyl)-2-azabicyclo[3.1.0]hexane-3-carboxamide], for which the IC50 was above 1000 nM.
To `C[C@@]12C[C@@H]1N(C(=O)CNC(=O)c1ccc(Oc3ccccc3)cc1)[C@H](C(=O)NCc1cc(C3=NCCN3)cs1)C2` [Compound 37, (1S,3S,5S)-N-((4-(4,5-dihydro-1H-imidazol-2-yl)thiophen-2-yl)methyl)-5-methyl-2-((4-phenoxybenzoyl)glycyl)-2-azabicyclo[3.1.0]hexane-3-carboxamide] belongs above 1000 nM.
As to `N=C(N)c1csc(CNC(=O)[C@@H]2C[C@@H](OCC3CC3)CN2C(=O)CNC(=O)c2ccc(Oc3ccccc3)cc2)c1` [Compound 50, (2S,4R)-N-((4-carbamimidoylthiophen-2-yl)methyl)-4-(cyclopropylmethoxy)-1-((4-phenoxybenzoyl)glycyl)pyrrolidine-2-carboxamide], the IC50 was below 100 nM.
For `N=C(N)c1csc(CNC(=O)[C@@H]2CC3(COC3)CN2C(=O)CNC(=O)c2ccc(Oc3ccccc3)cc2)c1` [Compound 262, (S)-N-((4-carbamimidoylthiophen-2-yl)methyl)-6-((4-phenoxybenzoyl)glycyl)-2-oxa-6-azaspiro[3.4]octane-7-carboxamide], the IC50 is below 100 nM.
For `N=C(N)c1csc(CNC(=O)[C@@H]2C[C@@]3(CN2C(=O)CNC(=O)CCCOc2ccccc2)CC3(F)F)c1` [Compound 56, (3S,6S)-N-((4-carbamimidoylthiophen-2-yl)methyl)-1,1-difluoro-5-((4-phenoxy-butanoyl)glycyl)-5-azaspiro[2.4]heptane-6-carboxamide], the IC50 was below 100 nM.
Turning to `C[C@@]12C[C@@H]1N(C(=O)CNC(=O)c1ccc(Oc3cccnc3)cn1)[C@H](C(=O)NCc1cc(C(=N)N)cs1)C2` [Compound 162, (1S,3S,5S)-N-((4-carbamimidoylthiophen-2-yl)methyl)-5-methyl-2-((5-(pyridin-3-yloxy)picolinoyl)glycyl)-2-azabicyclo[3.1.0]hexane-3-carboxamide], the IC50 is below 100 nM.
For the molecule `C[C@@H](NC(=O)[C@@H]1C[C@]2(C)C[C@@H]2N1C(=O)CNC(=O)c1ccc(Oc2ccccc2)cc1)c1cc(-c2ncc[nH]2)cs1` [Compound 240, (1S,3S,5S)-N-((R)-1-(4-(1H-imidazol-2-yl)thiophen-2-yl)ethyl)-5-methyl-2-((4-phenoxybenzoyl)glycyl)-2-azabicyclo[3.1.0]hexane-3-carboxamide], the IC50 was below 100 nM.
To `C[C@@]12C[C@@H]1N(C(=O)CNC(=O)c1ccc(Oc3ccccc3)cc1)[C@H](C(=O)NCc1ccc(C(=N)N)cn1)C2` [Compound 4] belongs 100 to 1000 nM; to `N=C(N)c1csc(CNC(=O)[C@@H]2C[C@H](C3CCCCC3)CN2C(=O)CNC(=O)c2ccc(Oc3ccccc3)cc2)c1` [Compound 73, (2S,4R)-N-((4-carbamimidoylthiophen-2-yl)methyl)-4-cyclohexyl-1-((4-phenoxy-benzoyl)glycyl)pyrrolidine-2-carboxamide], below 100 nM; to `[N-]=[N+]=NC[C@@]1(F)C[C@@H](C(=O)NCc2cc(C(=N)N)cs2)N(C(=O)CNC(=O)CCCOc2ccccc2)C1` [Compound 85, (2S,4R)-4-(azidomethyl)-N-((4-carbamimidoylthiophen-2-yl)methyl)-4-fluoro-1-((4-phenoxybutanoyl)glycyl)pyrrolidine-2-carboxamide], below 100 nM.
For the molecule `N=C(N)c1csc(CNC(=O)[C@@H]2C[C@@H](OC3CC3)CN2C(=O)CNC(=O)c2ccc(Oc3ccccc3)cc2)c1` [Compound 110, (2S,4R)-N-((4-carbamimidoylthiophen-2-yl)methyl)-4-cyclopropoxy-1-((4-phenoxy-benzoyl)glycyl)pyrrolidine-2-carboxamide], the IC50 was below 100 nM.
To `N=C(N)c1csc(CNC(=O)[C@@H]2C[C@]3(CN2C(=O)CNC(=O)CCCOc2ccccc2)CC3(F)F)c1` [Compound 57, (3R,6S)-N-((4-carbamimidoylthiophen-2-yl)methyl)-1,1-difluoro-5-((4-phenoxy-butanoyl)glycyl)-5-azaspiro[2.4]heptane-6-carboxamide] belongs below 100 nM; to `C[C@@H](NC(=O)[C@@H]1C[C@@H](c2ccccc2)CN1C(=O)CNC(=O)CCCOc1ccccc1)c1cc(C(=N)N)cs1` [Compound 158, (2S,4S)-N-((R)-1-(4-carbamimidoylthiophen-2-yl)ethyl)-1-((4-phenoxybutanoyl)glycyl)-4-phenylpyrrolidine-2-carboxamide], below 100 nM.

These data come from patent publication US20250171423A1, “PHARMACEUTICAL COMPOUNDS FOR THE TREATMENT OF COMPLEMENT MEDIATED DISORDERS” (Achillion Pharmaceuticals, Inc., priority 2020, published 2025).
